A word on the Ki: it is the dissociation constant of the complex between target and ligand, obtained from inhibition or displacement. For orientation: IC50 means the concentration at which inhibition is half-maximal. High values mean a need for much substance, low ones inhibition by little substance. A word on the inhibition: it is the change of the read-out against control, counted positive when it falls. The term Kd denotes the concentration at which binding is half-saturated. Lower therefore signals tighter binding.

The values below come from patent publication US20240344241A1, “PROTEINACEOUS MOLECULES AND USES THEREFOR” (THE UNIVERSITY OF QUEENSLAND, priority 2021, published 2024).

Bridge positions count the residues as written; N and C are the ends. Ends that are not written are not given here. Peptide text beside a SMILES is read from it. A value given as a limit tells only on which side of the number the result lay.

One data set concerns the target T1, Human β-FXIIa (Homo sapiens, UniProt P00748).
T1 construct: Human β-FXIIa was obtained from Molecular Innovations, together with human FXa, human FXIa, human α-thrombin, and human plasma kallikrein; purchased Molecular Innovations; host or cells: purified from human plasma
The data set is described as follows: FXIIa competitive inhibition assay, colorimetric substrate Ac-QRFR-pNA. In kind it is biochemical. As for the experimental part:
(§1) The activity of acyclic and cyclic MCoFx1-5 and analogues thereof was assessed in competitive inhibition assays, as previously described in Swedberg et al. (2016) J Med Chem, 59: 7287-7292. Human β-FXIIa was obtained from Molecular Innovations, together with human FXa, human FXIa, human α-thrombin, and human plasma kallikrein. Human cationic trypsin and human plasmin were obtained from Sigma-Aldrich, and recombinant human matriptase was sourced from R&D Systems. Recombinant human urokinase (uPA) and recombinant human tissue plasminogen activator (tPA) were expressed in Expi293 cells, as previously described in Li et al. (2019) Chembiochem, 20: 46-50. FXIIa inhibition assays were performed in clear, low-binding 96-well plates using 250 μL (final volume) of assay buffer (0.1 M Tris-HCl pH 8.0, 0.1 M NaCl, 10 mM CaCl2 and 0.005% Triton X-100). Inhibitors were serially diluted and incubated with 10 nM FXIIa at room temperature to reach equilibrium. After adding 100 μM Ac-QRFR-pNA substrate (KM=162 μM), enzymatic activity was measured by monitoring release of the pNA moiety using a TECAN infinite M1000 Pro plate reader (A=405 nm, reading interval, 10 s; assay time course, 7 min). Assays were conducted in three times in duplicate. Substrate kinetic constants (Michaelis-Menten) and inhibition constants (Morrison K) were determined by non-linear regression using Prism 7 (GraphPad). Selectivity assays with off-target proteases were performed in a similar way, except that different concentrations of enzyme and substrate were used, as indicated in Table 16. For assays using a fluorescent substrate (peptide-4-methylcoumaryl-7-amide, MCA), black low-binding 96-well plates were used and activity was measured using a TECAN infinite M1000 pro plate reader (λex 360 nm, λem 460 nm, reading interval, 30 s; assay time course, 5-30 min).

In a further data set the target is T2, Human trypsin (Homo sapiens, UniProt P07477).
T2 construct: purchased Sigma-Aldrich; host or cells: purified from human tissue
The experiment in a line: Trypsin competitive inhibition assay. In kind it is biochemical. As for the experimental part:
as §1

The target in a further data set is T3, Human FXa (Homo sapiens, UniProt P00742).
T3 construct: Human β-FXIIa was obtained from Molecular Innovations, together with human FXa, human FXIa, human α-thrombin, and human plasma kallikrein; purchased Molecular Innovations; host or cells: purified from human plasma
The data set is described as follows: FXa inhibition assay. In kind it is biochemical. The procedure: as §1

A further data set concerns the target T4, Human FXIa (Homo sapiens, UniProt P03951).
T4 construct: Human β-FXIIa was obtained from Molecular Innovations, together with human FXa, human FXIa, human α-thrombin, and human plasma kallikrein; purchased Molecular Innovations; host or cells: purified from human plasma
The experiment in a line: FXIa inhibition assay. The class given is biochemical. As for the experimental part:
as §1

Another data set addresses T5, Human thrombin (Homo sapiens, UniProt P00734).
T5 construct: Human β-FXIIa was obtained from Molecular Innovations, together with human FXa, human FXIa, human α-thrombin, and human plasma kallikrein; purchased Molecular Innovations; host or cells: purified from human plasma
The data set is described as follows: Thrombin inhibition assay. In kind it is biochemical. As for the experimental part: as §1

The next data set concerns the target T6, Human plasma kallikrein (Homo sapiens, UniProt P03952).
T6 construct: Human β-FXIIa was obtained from Molecular Innovations, together with human FXa, human FXIa, human α-thrombin, and human plasma kallikrein; purchased Molecular Innovations; host or cells: purified from human plasma
The experiment in a line: Plasma kallikrein inhibition assay. In kind it is biochemical. The procedure: as §1

The next data set concerns the target T7, Human plasmin (Homo sapiens, UniProt P00747).
T7 construct: Human cationic trypsin and human plasmin were obtained from Sigma-Aldrich, and recombinant human matriptase was sourced from R&D Systems; purchased Sigma-Aldrich; host or cells: purified from human plasma
The experiment in a line: Plasmin inhibition assay. The class given is biochemical. The procedure:
as §1

The next data set addresses T8, Rec. human uPA (Homo sapiens, UniProt P00749).
T8 construct: made in house; host or cells: Expi293 cells
The experiment in a line: uPA inhibition assay. The class given is biochemical. The procedure:
as §1

For a further data set, the target named is T9, Rec. human tPA (Homo sapiens, UniProt P00750).
T9 construct: made in house; host or cells: Expi293 cells
The experiment in a line: tPA inhibition assay. In kind it is biochemical. As for the experimental part: as §1

The target of another data set is T10, Rec. human matriptase (Homo sapiens, UniProt Q9Y5Y6).
T10 construct: purchased R&D Systems
T10 sequence (Q9Y5Y6 615-855 limits assumed): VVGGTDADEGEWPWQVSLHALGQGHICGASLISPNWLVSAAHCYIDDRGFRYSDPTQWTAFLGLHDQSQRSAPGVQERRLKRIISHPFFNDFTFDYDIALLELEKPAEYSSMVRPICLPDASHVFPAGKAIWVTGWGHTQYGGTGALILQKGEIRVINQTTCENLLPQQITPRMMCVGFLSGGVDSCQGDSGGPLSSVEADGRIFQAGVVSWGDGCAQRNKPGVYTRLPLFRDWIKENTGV
The experiment in a line: Matriptase inhibition assay. In kind it is biochemical. As for the experimental part:
as §1

Data set [1] has as its target T11, biotinylated human β-FXIIa (Homo sapiens, UniProt P00748).
T11 construct: purchased Molecular Innovations
The data set is described as follows: Surface plasmon resonance binding to FXIIa. As for the experimental part:
Binding kinetics of each peptide towards biotinylated human β-FXIIa (Molecular Innovations) and non-labelled zymogen FXII (Haematologic Technologies) were determined using a Biacore T200 machine (Cytiva). For β-FXIIa binding measurements, the running buffer was HBS-EP+(10 mM HEPES, 150 mM NaCl, 3 mM EDTA and 0.05% (v/v) surfactant P20, pH 7.4). Biotinylated β-FXIIa was immobilized on a Sensor Chip CAP (Cytiva) using Biotin CAPture Reagent (Cytiva). A series of concentrations of each peptide were injected as analyte and the binding kinetics were modelled using a 1:1 binding model. Regeneration of sensor surface was performed after each measurement cycle. For FXII binding measurements, the running buffer was PBST (137 mM NaCl, 2.7 mM KCl, 10 mM Na2HPO4, 1.8 mM KH2PO4, 0.05% Tween-20). Non-labelled FXII was immobilized on a Sensor Chip CM5 (Cytiva) using Amine Coupling Kit (Cytiva), achieving a final immobilization level of 2500 RU. Each peptide was flowed through immobilized FXII at 5 μM for 60 s and allowed dissociation for 150 s.
On the technique in general: SPR reads the build-up and loss of mass on a sensor chip optically.

The target of the next data set is T12, bovine trypsin (Bos taurus, UniProt P00760).
T12 sequence (P00760 24-246): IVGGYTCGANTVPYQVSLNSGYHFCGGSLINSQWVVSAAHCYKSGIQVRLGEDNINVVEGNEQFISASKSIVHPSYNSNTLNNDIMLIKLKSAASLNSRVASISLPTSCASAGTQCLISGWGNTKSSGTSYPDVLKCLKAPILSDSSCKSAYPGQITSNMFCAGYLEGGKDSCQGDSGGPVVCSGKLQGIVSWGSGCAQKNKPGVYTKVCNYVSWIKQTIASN
The experiment in a line: Surface plasmon resonance binding to trypsin.

A further data set is described as follows: Stability in human serum. The procedure: Briefly, peptides were incubated at a final concentration of 30 μM in human serum (human male AB serum, Sigma-Aldrich) at 37° C. for 0, 1, 12 and 24 h. The reaction was stopped at designated times, with the serum proteins being denatured by addition of two volumes of acetonitrile (v/v). The samples were then spun at 17,000 g for 10 min and the amount of peptide in the supernatant was quantified using analytical HPLC. The percentage of peptide remaining at 1, 12 and 24 h was calculated using the area of the serum-treated peptide peak from 0 h as 100%.

T9 sequence (P00750 36-562): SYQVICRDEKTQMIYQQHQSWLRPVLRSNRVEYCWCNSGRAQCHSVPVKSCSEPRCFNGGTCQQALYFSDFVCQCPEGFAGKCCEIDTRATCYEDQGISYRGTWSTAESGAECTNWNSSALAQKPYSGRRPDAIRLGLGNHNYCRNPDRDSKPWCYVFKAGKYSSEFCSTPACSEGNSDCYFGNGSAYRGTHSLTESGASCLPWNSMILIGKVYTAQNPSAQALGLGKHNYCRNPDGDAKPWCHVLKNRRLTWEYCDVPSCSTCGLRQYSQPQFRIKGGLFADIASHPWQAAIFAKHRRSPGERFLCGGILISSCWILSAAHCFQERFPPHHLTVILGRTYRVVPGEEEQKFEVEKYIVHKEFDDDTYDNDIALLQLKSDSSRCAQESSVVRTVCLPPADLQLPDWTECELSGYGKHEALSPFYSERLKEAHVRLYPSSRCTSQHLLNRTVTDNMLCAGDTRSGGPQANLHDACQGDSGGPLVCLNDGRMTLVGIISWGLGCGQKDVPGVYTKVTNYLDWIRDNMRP
T4 sequence (P03951 388-625 limits assumed): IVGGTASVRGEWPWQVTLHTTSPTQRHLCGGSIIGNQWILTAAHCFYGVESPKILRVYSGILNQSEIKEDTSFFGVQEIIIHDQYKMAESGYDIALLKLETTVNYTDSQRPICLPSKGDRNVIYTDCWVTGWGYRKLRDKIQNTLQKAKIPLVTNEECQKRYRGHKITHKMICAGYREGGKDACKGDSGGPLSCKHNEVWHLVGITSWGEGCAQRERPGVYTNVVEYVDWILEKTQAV
T4 sequence (P03951 19-387 partner limits assumed): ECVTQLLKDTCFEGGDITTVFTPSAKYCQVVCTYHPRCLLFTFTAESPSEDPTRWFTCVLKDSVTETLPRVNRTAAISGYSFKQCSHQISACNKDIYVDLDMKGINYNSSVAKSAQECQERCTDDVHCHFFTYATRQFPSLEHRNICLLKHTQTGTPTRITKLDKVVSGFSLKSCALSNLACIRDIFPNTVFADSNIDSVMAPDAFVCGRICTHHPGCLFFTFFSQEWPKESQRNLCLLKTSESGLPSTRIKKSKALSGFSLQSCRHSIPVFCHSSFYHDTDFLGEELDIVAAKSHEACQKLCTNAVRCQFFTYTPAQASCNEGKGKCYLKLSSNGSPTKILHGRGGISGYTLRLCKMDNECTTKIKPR
T3 sequence (P00742 235-488 limits assumed): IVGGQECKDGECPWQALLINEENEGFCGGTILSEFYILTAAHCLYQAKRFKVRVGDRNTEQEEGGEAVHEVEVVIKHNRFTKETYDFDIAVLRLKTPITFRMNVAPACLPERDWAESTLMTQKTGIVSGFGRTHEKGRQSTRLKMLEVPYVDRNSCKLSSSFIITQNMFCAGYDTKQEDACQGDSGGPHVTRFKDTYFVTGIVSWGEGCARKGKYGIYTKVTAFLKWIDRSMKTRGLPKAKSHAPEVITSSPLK
T3 sequence (P00742 41-179 partner limits assumed): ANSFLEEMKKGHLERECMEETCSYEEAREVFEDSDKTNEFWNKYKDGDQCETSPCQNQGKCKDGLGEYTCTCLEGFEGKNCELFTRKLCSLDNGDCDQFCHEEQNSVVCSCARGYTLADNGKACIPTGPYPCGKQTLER
T1 sequence (P00748 373-615 limits assumed, other chains not shown): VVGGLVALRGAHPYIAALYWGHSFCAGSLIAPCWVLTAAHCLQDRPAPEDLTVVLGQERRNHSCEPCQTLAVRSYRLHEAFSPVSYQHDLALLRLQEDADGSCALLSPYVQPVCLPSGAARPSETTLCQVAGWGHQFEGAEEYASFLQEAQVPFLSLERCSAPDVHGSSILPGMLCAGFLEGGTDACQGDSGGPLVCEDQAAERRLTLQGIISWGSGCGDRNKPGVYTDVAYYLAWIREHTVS
T6 sequence (P03952 391-638 limits assumed): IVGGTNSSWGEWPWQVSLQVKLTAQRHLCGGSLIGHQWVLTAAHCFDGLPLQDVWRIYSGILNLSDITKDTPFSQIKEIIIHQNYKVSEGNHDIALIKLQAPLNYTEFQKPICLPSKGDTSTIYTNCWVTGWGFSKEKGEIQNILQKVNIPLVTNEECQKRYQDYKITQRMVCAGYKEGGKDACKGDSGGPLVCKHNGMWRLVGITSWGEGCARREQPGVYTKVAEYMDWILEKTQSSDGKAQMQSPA
T6 sequence (P03952 20-390 partner limits assumed): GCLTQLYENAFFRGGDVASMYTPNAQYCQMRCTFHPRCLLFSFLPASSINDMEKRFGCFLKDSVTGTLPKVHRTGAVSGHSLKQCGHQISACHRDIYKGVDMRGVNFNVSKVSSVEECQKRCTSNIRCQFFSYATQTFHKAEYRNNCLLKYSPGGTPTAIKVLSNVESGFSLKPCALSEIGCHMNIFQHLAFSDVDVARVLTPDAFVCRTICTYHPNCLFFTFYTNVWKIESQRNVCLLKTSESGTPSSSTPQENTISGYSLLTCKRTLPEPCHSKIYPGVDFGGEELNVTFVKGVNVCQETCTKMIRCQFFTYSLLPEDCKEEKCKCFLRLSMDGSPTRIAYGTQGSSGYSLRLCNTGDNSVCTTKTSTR
T7 sequence (P00747 581-810 limits assumed): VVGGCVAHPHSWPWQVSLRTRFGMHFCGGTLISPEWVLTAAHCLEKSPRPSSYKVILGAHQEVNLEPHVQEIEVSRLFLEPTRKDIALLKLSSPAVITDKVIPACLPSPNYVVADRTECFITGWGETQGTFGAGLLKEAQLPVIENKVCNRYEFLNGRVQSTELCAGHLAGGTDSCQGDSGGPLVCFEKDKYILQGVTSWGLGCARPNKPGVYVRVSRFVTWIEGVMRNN
T7 sequence (P00747 97-580 partner limits assumed): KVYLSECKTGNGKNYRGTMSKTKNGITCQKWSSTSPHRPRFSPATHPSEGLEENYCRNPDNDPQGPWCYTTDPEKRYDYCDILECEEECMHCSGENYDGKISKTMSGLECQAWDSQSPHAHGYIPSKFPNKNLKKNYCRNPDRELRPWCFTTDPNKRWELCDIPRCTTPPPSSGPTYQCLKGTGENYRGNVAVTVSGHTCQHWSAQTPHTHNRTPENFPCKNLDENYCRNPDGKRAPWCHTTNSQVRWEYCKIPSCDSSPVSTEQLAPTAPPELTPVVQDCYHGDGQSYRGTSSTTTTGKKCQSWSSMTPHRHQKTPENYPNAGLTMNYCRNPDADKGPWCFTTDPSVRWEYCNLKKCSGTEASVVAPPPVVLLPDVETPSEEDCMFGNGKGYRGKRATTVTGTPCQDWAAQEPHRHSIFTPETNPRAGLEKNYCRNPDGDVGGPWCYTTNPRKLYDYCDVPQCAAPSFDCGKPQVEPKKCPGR
T11 sequence (P00748 373-615 limits assumed, other chains not shown): as the sequence (P00748 373-615 limits assumed, other chains not shown) above

`CC[C@H](C)[C@@H]1NC(=O)[C@@H]2CSSC[C@@H]3NC(=O)[C@H](C(C)C)NC(=O)CNC(=O)CNC(=O)[C@H](CC(=O)O)NC(=O)[C@H](CO)NC(=O)CNC(=O)[C@H](CO)NC(=O)CNC(=O)[C@@H]4CSSC[C@H](NC(=O)[C@H](CC(=O)O)NC(=O)[C@H](CO)NC(=O)[C@H](CC(=O)O)NC(=O)[C@H](CCCNC(=N)N)NC(=O)[C@H](CCCNC(=N)N)NC(=O)[C@H](CSSC[C@H](NC1=O)C(=O)N[C@@H](CCCNC(=N)N)C(=O)N[C@@H](C)C(=O)N[C@@H]([C@@H](C)O)C(=O)N[C@@H](CCCNC(=N)N)C(=O)N[C@@H](Cc1ccccc1)C(=O)N4)NC(=O)[C@H](CCCCN)NC(=O)[C@H](CCCCN)NC(=O)[C@H](CC(C)C)NC(=O)[C@H]([C@@H](C)CC)NC(=O)[C@H](CCCCN)NC(=O)[C@@H]1CCCN1C3=O)C(=O)N1CCC[C@H]1C(=O)NCC(=O)N[C@@H](C)C(=O)N2` [cMCoTI-fxL5] (cyclo(ACICRATRFCGSGSDGGVCPKILKKCRRDSDCPG); disulfide 2-19, 4-26, 10-32): the Ki at Human β-FXIIa was found to be 66 nM; at Human trypsin, 0.08 nM; at Human plasmin, 31 nM; at Rec. human matriptase it was 17 nM. Besides, the IC50 on Human FXa, against Human FXIa, against Human thrombin, against Human plasma kallikrein, at Rec. human uPA and at Rec. human tPA was above 5000 nM each time. For the same compound, the inhibition at 5 µM at Human FXa (read-out: percent inhibition FXa) was found to be 0%; on Human FXIa (read-out: percent inhibition FXIa), 1%; at Human thrombin (read-out: percent inhibition Thrombin), 3%; at Human plasma kallikrein (read-out: percent inhibition Plasma kallikrein), 0%; at Rec. human uPA (read-out: percent inhibition uPA) it was 0%; at Rec. human tPA (read-out: percent inhibition tPA), 1%.

As for `CC[C@H](C)[C@H](NC(=O)CNC(=O)CNC(=O)[C@@H](N)CC(=O)O)C(=O)N[C@H]1CSSC[C@@H]2NC(=O)[C@H](C)NC(=O)CNC(=O)[C@@H]3CCCN3C(=O)[C@@H]3CSSC[C@@H](C(=O)NCC(=O)N[C@@H](CO)C(=O)NCC(=O)N[C@@H](Cc4ccc(O)cc4)C(=O)O)NC(=O)[C@H](Cc4ccccc4)NC(=O)[C@H](CCCNC(=N)N)NC(=O)[C@H]([C@@H](C)O)NC(=O)[C@H](C)NC(=O)[C@H](CCCNC(=N)N)NC(=O)[C@H](CSSC[C@H](NC(=O)[C@H](CC(C)C)NC(=O)[C@H](CCCNC(=N)N)NC(=O)CNC(=O)[C@H]([C@@H](C)CC)NC(=O)[C@H](CCCNC(=N)N)NC(=O)[C@@H]4CCCN4C1=O)C(=O)N[C@@H](CCCNC(=N)N)C(=O)N[C@@H](CCCNC(=N)N)C(=O)N[C@@H](CC(=O)O)C(=O)N[C@@H](CO)C(=O)N[C@@H](CC(=O)O)C(=O)N3)NC(=O)[C@H]([C@@H](C)CC)NC2=O` [MCoFx1 acyclic] (H-DGGICPRIGRLCRRDSDCPGACICRATRFCGSGY-OH; disulfide 5-22, 12-24, 18-30), the Kd in data set [1] was determined as 1.89 ± 0.04 nM; at bovine trypsin, 59.6 nM. Moreover, at Human β-FXIIa, the Ki worked out at 0.73 ± 0.2 nM. In “Stability in human serum” (human serum, 37° C., up to 24 h), the “resistance to serum proteases (in words)” value was “highly resistant to serum proteases”.

In the case of EAIYAAPFAKKK [reference compound], the “time to degradation in human serum” value in “Stability in human serum” was at most 1 h.
